Earlier results as cited in patent US20140378500A1, “METHODS FOR PREDICTING TUMOR REPONSE TO TARGETED THERAPIES” (20/20 Gene Systems, Inc., priority 2012, published 2014).

Tested on: advanced renal cell carcinoma (RCC)
Settings: cited from earlier work

In the case of CO[C@H]1C[C@@H]2CC[C@@H](C)[C@@](O)(O2)C(=O)C(=O)N2CCCC[C@H]2C(=O)O[C@H]([C@H](C)C[C@@H]2CC[C@@H](OC(=O)C(C)(CO)CO)[C@H](OC)C2)CC(=O)[C@H](C)/C=C(\C)[C@@H](O)[C@@H](OC)C(=O)[C@H](C)C[C@H](C)/C=C/C=C/C=C/1C [TORISEL, Temsirolimus], the “kidney cancer patients who benefit materially” value (kidney cancer patients, mTOR inhibitors) is given as “less than 10%” and the response rate (patients diagnosed with advanced RCC) is given as “less than 10%”.
